The IC50 is the concentration that inhibits the measured activity by half. Lower therefore signals inhibition by little substance.

Here are results for three compounds from US20230226207A1, “Camptothecin Drug Having High-Stability Hydrophilic Connecting Unit And Conjugate Thereof” (SICHUAN BAILI PHARM CO., LTD, priority 2020, published 2023).

The subject of test [1] is N87 (human gastric cancer cells). The test is described as follows: In vitro proliferation inhibition of N87 tumor cells (MTS). The conditions noted are these: 120 h, 5 days. Format: cell-based. Here is the method: (§1) 1) Experimental Materials • Cells: from the cell bank of the Chinese Academy of Sciences; • Tumor cell culture medium: Gibco; • FBS: BIOWEST;
(§2) 2) Preparation of Medium • Growth medium (with 10% FBS, Penicillin/streptomycin (100 U/mL); • Detection medium (with 1% FBS, Penicillin/streptomycin (100 U/mL);
(§3) Turn on the UV lamp in the biological safety cabinet 30 minutes in advance, and ventilate for 3 minutes. Put the growth medium, detection medium, D-PBS and pancreatin into a 37° C. constant temperature water bath to preheat, then disinfect the surface with alcohol and put it in a biological safety cabinet. Select cells with a confluence of ˜80% (logarithmic growth phase), put them in a biological safety cabinet, aspirate the old medium, rinse with D-PBS, aspirate and discard, digest with trypsin for 2 to 3 minutes, and then add to growth Stop trypsin in the medium, and centrifuge at 500×g for 5 min. Aspirate the centrifugal supernatant, mix well with 4 mL detection medium, take 100 uL for counting (take out 50 uL cell fluid, add 50 μL 0.4% Trypan Blue Stain and mix well, and count after mixing). Plate the plate according to the number of cells set before, and plate 80 uL/well in a 96-well plate. Only add 80 uL detection medium to wells E11, F11, and G11, and add 200 uL DPBS to the edge holes to seal the edges. […]
(§4) Take out the MTS reagent after the test sample is exposed for 5 days. […] After the reaction, the 96-well plate was taken out, the OD490 nm absorbance value was detected in the microplate reader, and the data was recorded, sorted, and stored.

Test [2] has as its system SK-BR-3 (human breast adenocarcinoma cells). As to the kind of experiment: In vitro proliferation inhibition of SK-BR-3 tumor cells (MTS). Format: cell-based. The conditions noted are these: 120 h, SK-BR-3 cells, 5 days. Here is the method: as §1, §2, §3, §4

For the compound `CC[C@@]1(O)C(=O)OCc2c1cc1n(c2=O)Cc2c-1nc1cc(F)c(C)c3c1c2[C@@H](NC(=O)[C@H](O)C(F)(F)F)CC3` [d6], the IC50 was 2.15 nM in test [1] and 239 nM in test [2].
In the case of `CC[C@@]1(O)C(=O)OCc2c1cc1n(c2=O)Cc2c-1nc1cc(F)c(C)c3c1c2[C@@H](NC(=O)CO)CC3` [d1], the IC50 in test [1] was found to be 13.3 nM; in test [2], 104 nM.
For `CC[C@@]1(O)C(=O)OCc2c1cc1n(c2=O)Cc2c-1nc1cc(F)c(C)c3c1c2[C@@H](NC(=O)[C@H](C)O)CC3` [d3], in that order: 8.03 nM and 183 nM.
